Experimental data as given in publication PMC3914206.

What was measured:
Type in all cases: binding
panel of 442 kinases [1] = molecular target: T1, panel of 442 kinases (Homo sapiens, UniProt Q6PHR2); conditions: kinase ULK3; compound concentration 10 µM
T1 construct: purchased KINOMEscan
T1 sequence (Q6PHR2 1-472): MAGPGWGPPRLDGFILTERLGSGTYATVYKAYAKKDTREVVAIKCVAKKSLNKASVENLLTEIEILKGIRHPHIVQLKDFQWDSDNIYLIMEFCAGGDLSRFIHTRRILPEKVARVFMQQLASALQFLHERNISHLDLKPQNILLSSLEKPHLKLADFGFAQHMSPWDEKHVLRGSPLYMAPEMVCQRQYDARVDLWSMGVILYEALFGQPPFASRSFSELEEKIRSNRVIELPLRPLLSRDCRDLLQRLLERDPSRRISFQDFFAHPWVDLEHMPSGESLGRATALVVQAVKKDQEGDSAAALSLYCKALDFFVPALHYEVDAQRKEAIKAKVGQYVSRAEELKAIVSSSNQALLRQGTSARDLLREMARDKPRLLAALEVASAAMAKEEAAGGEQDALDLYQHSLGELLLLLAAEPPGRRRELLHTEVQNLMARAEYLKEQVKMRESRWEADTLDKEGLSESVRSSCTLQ
Description: (§1) We assessed the selectivity of members of this scaffold using the KINOMEscan methodology across a near comprehensive panel of 442 kinases [[18,27]].

panel of 442 kinases [2] = molecular target: T2, panel of 442 kinases (Homo sapiens, UniProt Q9UPE1); conditions: kinase SRPK3; compound concentration 10 µM
T2 construct: purchased KINOMEscan
T2 sequence (Q9UPE1 whole entry): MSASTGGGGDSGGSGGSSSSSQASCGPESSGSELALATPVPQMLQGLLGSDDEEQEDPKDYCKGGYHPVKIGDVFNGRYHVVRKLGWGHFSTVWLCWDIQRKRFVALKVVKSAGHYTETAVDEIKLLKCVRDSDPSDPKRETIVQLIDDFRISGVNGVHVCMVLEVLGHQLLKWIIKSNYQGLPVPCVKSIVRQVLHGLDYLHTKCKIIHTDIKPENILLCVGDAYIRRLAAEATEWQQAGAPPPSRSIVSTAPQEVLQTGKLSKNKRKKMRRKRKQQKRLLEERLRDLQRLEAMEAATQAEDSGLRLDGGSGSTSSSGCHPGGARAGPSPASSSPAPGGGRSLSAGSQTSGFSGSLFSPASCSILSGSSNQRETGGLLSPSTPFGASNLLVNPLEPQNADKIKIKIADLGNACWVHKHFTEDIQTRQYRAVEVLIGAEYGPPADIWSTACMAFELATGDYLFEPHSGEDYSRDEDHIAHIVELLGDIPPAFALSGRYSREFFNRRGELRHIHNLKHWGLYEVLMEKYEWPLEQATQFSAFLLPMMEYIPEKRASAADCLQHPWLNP
Description: as §1

panel of 442 kinases [3] = molecular target: T3, panel of 442 kinases (Homo sapiens, UniProt Q9Y2H1); conditions: Compound Concentration 10 µM
T3 construct: purchased KINOMEscan
T3 sequence (Q9Y2H1 whole entry): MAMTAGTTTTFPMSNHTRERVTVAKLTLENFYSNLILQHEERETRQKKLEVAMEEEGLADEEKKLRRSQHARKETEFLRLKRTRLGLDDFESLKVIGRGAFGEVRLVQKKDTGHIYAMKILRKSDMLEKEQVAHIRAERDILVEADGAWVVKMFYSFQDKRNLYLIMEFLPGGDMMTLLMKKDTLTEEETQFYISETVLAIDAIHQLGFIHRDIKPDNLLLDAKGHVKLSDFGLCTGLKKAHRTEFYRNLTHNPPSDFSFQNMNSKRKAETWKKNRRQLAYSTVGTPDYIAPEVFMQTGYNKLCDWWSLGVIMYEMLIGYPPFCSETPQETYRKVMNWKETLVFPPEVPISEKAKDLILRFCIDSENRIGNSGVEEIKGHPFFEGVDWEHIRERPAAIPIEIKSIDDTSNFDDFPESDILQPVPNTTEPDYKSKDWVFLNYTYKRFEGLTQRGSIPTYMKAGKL
Description: as §1

| Compound | % Ctrl, ULK3 (panel of 442 kinases [1]) [% Ctrl] | % Ctrl, SRPK3 (panel of 442 kinases [2]) [% Ctrl] | KINOMEscan: NDR2 (panel of 442 kinases [3]) |
| --- | --- | --- | --- |
| COc1cc(C(=O)N2CCC(N3CCN(C)CC3)CC2)ccc1Nc1ncc2c(n1)N(C)c1ccccc1C(=O)N2C [15 (LRRK2-IN-1)] | 100 | 72 | 100 |
| COc1cc(C(=O)N2CCC(N3CCN(C)CC3)CC2)ccc1Nc1ncc2c(n1)N1CCc3cccc(c31)C(=O)N2C [Compound 24] | 100 | 91 |  |
| COc1cc(C(=O)N2CCC(N3CCN(C)CC3)CC2)ccc1Nc1ncc2c(n1)N(C1CCCC1)c1ccccc1C(=O)N2C [Compound 25, 11-cyclopentyl-2-((2-methoxy-4-(4-(4-methylpiperazin-1-yl)piperidine-1-carbonyl)phenyl)amino)-5-methyl-5H-benzo[e]pyrimido[5,4-b][1,4]diazepin-6(11H)-one] | 100 | 91 | 100 |
| CCOc1cc(C(=O)N2CCC(N3CCN(C)CC3)CC2)ccc1Nc1ncc2c(n1)N(C1CCCC1)c1ccccc1C(=O)N2C [Compound 26] | 100 | 100 | 100 |
